# Measured values published in ChEMBL document CHEMBL1201862, “PubChem BioAssay data set” (2004).
# Calls of active or inactive are those of the source.
# Assays:
# [1] = Luminescence Cell-Based Dose Retest to Confirm Inhibitors of Cancer Stem Cells. [Related pubchem assays (depositor defined):AID2717, AID2721]; format: functional; details: Homo sapiens
# [2] = target: T1, Carboxy-terminal domain RNA polymerase II polypeptide A small phosphatase 1 (Homo sapiens, UniProt Q9GZU7); experiment: inhibitors of CTDSP1, concentration-response testing, biochemical assay, absorbance-based, actives from ultra-high-throughput screening (AID 540297); format: functional
# T1 sequence (Q9GZU7 whole entry): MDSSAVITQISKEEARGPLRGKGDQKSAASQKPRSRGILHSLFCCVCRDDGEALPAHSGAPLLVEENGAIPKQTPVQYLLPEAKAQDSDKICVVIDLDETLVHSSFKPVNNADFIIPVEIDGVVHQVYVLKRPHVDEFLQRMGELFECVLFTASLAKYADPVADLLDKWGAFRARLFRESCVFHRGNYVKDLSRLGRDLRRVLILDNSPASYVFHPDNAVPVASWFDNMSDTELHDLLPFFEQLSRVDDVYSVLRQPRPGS
# [3] = cytotoxicity in HMLE control line with eGFP shRNA, dose response, counter-screen for HMLE_sh_ECad selective toxicity project, cell-based, HMLE_sh_eGFP, luminescence (AID 463074); format: functional, Homo sapiens;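 further: HMLE human mammary epithelial cells expressing control shRNA against eGFP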
# [4] = cytotoxicity toward NIH3T3 fibroblasts, dose response, counter-screen, cell-based, ATP luminescence, mouse fibroblasts (AID 2010); format: functional;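 further: cells exposed to compound for about 90 hours before reading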
# [5] = inhibitors of intracellular T. cruzi replication, confirmation, NIH3T3 host cells, beta-gal luminescence (AID 2044); format: functional, cell-based;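 further: intracellular parasites grown in NIH/3T3 mouse fibroblasts as host cells; luminescent beta-galactosidase reporter signal from transgenic T. cruzi replicating inside host cells; inhibitors lower the luminescence signal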
# Beta Lactamase = Beta Lactamase (Pseudomonas aeruginosa, UniProt Q932Y6); experiment: beta-lactamase reporter inhibitor potency, dose response, artefact control for TLR9-MyD88 binding inhibitor project, BLA reporter cells, FRET fluorescence (AID 588341); format: cell-based;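 further: cell based assay in CHO-K1 cells stably expressing beta-lactamase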
# Sequence of Beta Lactamase (Q932Y6 whole entry, the tested form may be a part): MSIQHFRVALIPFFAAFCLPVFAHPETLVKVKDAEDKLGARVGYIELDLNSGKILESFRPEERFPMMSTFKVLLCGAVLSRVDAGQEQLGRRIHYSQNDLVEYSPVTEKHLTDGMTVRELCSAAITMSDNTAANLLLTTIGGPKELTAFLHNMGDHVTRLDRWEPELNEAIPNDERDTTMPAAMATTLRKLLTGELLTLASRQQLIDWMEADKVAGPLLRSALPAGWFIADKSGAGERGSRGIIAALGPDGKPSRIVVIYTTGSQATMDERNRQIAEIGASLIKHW
# CHO = experiment: cytotoxicity in TLR9-MyD88 CHO cells, dose response, cytotoxicity control for TLR9-MyD88 binding inhibitor project, cell-based, luminescence (AID 588339); format: functional, hamster; details: Cricetulus griseus;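 further: CHO cells stably coexpressing TLR9 and MyD88 fusions from primary screen; compound exposure lasted 48 hours before viability readout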
# Ion channel NompC = Ion channel NompC (Danio rerio, UniProt Q7T1G6); experiment: Dose response cell-based high-throughput screening assay for agonists of the transient receptor potential channel N1 (TRPN1). [Related pubchem assays (depositor defined):AID1424, AID1448]; format: functional
# Sequence of Ion channel NompC (Q7T1G6 whole entry): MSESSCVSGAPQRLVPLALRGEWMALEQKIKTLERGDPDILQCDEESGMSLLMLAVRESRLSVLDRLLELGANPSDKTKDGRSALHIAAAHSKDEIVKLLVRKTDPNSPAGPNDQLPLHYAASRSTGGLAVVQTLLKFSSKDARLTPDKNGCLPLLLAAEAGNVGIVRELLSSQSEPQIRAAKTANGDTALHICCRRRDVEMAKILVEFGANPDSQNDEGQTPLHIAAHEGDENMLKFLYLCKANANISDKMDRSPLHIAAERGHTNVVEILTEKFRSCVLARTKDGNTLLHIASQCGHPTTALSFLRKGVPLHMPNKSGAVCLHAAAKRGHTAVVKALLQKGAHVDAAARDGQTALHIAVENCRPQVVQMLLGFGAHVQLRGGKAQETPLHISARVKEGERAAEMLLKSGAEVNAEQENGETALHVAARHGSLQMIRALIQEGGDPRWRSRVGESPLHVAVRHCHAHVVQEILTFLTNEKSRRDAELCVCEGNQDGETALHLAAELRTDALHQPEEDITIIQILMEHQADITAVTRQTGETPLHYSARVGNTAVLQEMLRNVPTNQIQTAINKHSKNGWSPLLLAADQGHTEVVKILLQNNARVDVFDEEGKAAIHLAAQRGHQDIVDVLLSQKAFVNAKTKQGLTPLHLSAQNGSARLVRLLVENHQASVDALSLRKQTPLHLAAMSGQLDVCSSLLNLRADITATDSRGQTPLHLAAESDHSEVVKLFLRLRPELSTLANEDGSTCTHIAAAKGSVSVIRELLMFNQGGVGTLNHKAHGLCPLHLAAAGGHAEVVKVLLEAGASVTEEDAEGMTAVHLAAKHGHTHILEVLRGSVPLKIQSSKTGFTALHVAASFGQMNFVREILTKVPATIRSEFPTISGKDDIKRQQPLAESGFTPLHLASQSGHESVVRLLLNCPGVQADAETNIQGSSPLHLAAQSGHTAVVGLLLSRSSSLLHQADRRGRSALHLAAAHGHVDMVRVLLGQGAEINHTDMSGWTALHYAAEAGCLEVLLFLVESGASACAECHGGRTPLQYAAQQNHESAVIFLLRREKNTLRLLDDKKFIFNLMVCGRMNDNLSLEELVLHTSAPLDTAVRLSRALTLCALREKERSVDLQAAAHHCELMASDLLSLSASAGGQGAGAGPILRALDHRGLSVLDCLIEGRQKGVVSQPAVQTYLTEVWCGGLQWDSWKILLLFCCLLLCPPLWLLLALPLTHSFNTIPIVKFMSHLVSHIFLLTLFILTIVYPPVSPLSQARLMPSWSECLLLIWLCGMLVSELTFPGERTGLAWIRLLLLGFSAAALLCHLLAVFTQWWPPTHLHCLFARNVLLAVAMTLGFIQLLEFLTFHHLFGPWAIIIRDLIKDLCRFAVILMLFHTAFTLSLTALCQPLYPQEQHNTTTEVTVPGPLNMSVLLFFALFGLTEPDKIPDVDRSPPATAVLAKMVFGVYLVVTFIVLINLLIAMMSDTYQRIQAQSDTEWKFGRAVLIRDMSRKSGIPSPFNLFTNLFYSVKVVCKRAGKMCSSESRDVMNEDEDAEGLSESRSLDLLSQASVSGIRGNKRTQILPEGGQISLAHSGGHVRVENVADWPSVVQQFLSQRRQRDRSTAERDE
# Mucolipin-3 = target: T2, Mucolipin-3 (Homo sapiens, UniProt Q8TDD5); experiment: Fluorescence counterscreen assay for […] agonists: dose response cell-based high-throughput screening assay to identify agonists of the transient receptor potential channel ML3 (TRPML3). [Related pubchem assays: 1424, 1448 ]; format: functional
# T2 sequence (Q8TDD5 whole entry): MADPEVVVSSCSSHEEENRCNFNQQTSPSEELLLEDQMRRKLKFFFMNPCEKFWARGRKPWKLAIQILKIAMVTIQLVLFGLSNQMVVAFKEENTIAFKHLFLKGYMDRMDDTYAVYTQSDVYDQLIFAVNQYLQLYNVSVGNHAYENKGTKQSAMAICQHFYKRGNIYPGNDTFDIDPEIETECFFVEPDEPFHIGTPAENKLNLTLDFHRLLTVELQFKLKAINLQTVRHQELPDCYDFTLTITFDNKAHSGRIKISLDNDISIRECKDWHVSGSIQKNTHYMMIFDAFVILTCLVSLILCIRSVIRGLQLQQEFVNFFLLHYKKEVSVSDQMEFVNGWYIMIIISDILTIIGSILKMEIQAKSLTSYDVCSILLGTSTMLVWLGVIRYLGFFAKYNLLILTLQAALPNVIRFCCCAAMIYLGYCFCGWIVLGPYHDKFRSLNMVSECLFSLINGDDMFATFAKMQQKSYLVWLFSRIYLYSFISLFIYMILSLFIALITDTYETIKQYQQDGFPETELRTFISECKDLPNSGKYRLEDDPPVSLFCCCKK
# [6] = target: T3, E3 ubiquitin-protein ligase XIAP (Homo sapiens, UniProt P98170); experiment: Counter Screen using XIAP-Bir3 for Chemical Antagonists of Bir1/2 domains of IAP-family anti-apoptotic proteins. [Related pubchem assays (depositor defined):AID1018, AID1449, AID1514, AID1638, AID1749, AID1750, AID488957, AID488963]
# T3 sequence (P98170 whole entry): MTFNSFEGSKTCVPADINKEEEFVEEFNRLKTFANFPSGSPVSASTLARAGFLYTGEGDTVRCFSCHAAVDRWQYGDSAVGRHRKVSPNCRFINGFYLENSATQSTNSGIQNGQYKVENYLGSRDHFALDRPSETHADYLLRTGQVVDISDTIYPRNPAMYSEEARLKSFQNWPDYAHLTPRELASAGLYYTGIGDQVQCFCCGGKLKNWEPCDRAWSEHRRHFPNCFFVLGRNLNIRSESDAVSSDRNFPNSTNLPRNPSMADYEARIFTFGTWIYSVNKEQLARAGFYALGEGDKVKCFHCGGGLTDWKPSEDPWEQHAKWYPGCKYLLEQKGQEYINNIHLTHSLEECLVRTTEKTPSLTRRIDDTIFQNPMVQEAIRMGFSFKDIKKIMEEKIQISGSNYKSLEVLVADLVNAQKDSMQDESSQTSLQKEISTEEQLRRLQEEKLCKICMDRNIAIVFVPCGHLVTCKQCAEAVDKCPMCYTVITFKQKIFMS
# [7] = target: T3, E3 ubiquitin-protein ligase XIAP; experiment: XIAP antagonists, biochemical, IAP family, fluorescence polarization (AID 1018); format: functional
# [8] = target: Voltage-dependent T-type calcium channel subunit alpha-1H (Homo sapiens, UniProt O95180); format: functional;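 further: channel activity triggered by adding a high calcium stimulation buffer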
# Mu-type opioid receptor = Mu-type opioid receptor (Homo sapiens, UniProt P35372); experiment: (§1) Counterscreen for agonists of heterodimerization of the mu 1 (OPRM1) and delta 1 (OPRD1) opioid receptors: Luminescence-based cell-based high throughput dose response assay to identify agonists of OPRM1 homodimerization.; format: functional
# [9] = target: Delta-type opioid receptor (Homo sapiens, UniProt P41143); experiment: as §1, with “of OPRD1” for “of OPRM1”, “homodimerization. [Related pubchem assays (depositor defined):AID504326, AID504355, AID504692, AID504904, AID504905]” for “homodimerization.”; format: functional
# Sequence of Delta-type opioid receptor (P41143 whole entry): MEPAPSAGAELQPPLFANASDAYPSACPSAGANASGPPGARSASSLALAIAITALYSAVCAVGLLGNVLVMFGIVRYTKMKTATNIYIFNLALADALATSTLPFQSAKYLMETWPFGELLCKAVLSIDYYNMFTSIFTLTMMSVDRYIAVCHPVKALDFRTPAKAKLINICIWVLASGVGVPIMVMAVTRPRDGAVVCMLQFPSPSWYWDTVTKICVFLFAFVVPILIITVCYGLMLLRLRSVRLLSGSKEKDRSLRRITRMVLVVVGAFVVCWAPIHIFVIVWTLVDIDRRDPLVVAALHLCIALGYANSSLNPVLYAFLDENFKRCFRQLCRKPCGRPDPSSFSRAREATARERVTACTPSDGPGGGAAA
# [10] = target: COUP transcription factor 2 (Homo sapiens, UniProt P24468); experiment: Luminescence-based cell-based high throughput dose response assay to identify inhibitors of COUP-TFII (NR2F2).; format: functional;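 further: HEK293 cells transiently cotransfected with COUP-TFII expression vector and reporter; luciferase reporter luminescence driven by COUP-TFII from the pX2-168 reporter plasmid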
# Sequence of COUP transcription factor 2 (P24468 whole entry): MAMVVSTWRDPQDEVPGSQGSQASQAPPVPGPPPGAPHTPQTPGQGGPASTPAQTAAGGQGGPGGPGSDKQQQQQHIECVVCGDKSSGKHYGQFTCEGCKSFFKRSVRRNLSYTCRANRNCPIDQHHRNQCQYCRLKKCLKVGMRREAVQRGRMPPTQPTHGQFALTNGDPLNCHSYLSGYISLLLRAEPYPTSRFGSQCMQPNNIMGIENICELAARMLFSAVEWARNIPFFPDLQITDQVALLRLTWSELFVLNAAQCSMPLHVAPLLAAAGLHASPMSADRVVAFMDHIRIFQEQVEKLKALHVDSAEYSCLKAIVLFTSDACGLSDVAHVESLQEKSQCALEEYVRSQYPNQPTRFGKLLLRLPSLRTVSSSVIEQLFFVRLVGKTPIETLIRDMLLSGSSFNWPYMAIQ
# [11] = target: 5-hydroxytryptamine receptor 5A (Homo sapiens, UniProt P47898); experiment: Counterscreen for agonists of OPRM1-OPRD1 heterodimerization: luminescence-based cell-based high throughput dose response assay to identify agonists of 5-hydroxytryptamine (serotonin) 5A receptor (HTR5A). [Related pubchem assays (depositor defined):AID504326, AID504355, AID504692, AID504904, AID504905]; format: functional
# Sequence of 5-hydroxytryptamine receptor 5A (P47898 whole entry): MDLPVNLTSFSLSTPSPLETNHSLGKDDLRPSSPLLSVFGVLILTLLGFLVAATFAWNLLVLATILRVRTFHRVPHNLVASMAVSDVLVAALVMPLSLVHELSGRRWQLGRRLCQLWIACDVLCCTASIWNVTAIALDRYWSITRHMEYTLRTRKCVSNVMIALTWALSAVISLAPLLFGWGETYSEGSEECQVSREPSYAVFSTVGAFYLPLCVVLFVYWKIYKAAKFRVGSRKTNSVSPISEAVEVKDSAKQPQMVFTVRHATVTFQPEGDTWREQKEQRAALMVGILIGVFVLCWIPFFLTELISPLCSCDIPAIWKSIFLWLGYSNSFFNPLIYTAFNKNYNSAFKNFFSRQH
# [12] = target: ATP-dependent molecular chaperone HSP82 (Candida albicans (strain WO-1) (Yeast), UniProt C4YTQ8); experiment: loss of DOC-induced GRE-beta-galactosidase reporter signal, dose response, Hsp90 inhibitor project, S. cerevisiae, luminescence (AID 2400); format: functional, cell-based;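 further: beta-galactosidase luminescence from glucocorticoid response element reporter as proxy for Hsp90 function; inhibitor potency where signal loss means Hsp90 inhibition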
# Sequence of ATP-dependent molecular chaperone HSP82 (C4YTQ8 whole entry): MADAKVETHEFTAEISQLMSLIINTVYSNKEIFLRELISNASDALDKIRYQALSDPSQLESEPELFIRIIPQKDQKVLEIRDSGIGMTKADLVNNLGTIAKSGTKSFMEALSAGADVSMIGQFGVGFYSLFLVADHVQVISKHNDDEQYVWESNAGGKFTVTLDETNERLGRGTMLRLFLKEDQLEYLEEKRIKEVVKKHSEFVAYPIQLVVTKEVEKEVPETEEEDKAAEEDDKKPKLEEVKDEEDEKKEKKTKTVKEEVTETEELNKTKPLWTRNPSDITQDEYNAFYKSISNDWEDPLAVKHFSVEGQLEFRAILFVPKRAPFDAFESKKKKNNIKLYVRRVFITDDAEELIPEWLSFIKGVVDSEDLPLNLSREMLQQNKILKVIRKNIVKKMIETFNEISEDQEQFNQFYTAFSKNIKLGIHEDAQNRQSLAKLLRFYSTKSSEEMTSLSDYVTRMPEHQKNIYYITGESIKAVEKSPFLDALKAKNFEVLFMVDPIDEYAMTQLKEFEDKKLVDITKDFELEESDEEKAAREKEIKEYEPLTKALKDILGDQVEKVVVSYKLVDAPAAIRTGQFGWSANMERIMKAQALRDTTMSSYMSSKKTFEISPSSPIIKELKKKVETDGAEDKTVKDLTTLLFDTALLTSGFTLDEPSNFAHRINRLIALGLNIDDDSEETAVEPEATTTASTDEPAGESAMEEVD
# [13] = NIH-3T3 fibroblast cytotoxicity, dose response, cytotoxicity control, cell-based, fluorescence, Alamar Blue, secondary assay (AID 2327); format: functional;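 further: NIH-3T3 mouse fibroblasts cultured with fluconazole at 8 µg/mL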
# [14] = C. albicans growth with fluconazole, confirmation, fluorescence, retest (AID 2467); format: functional, cell-based
# [15] = target: Serine/threonine-protein phosphatase (Candida dubliniensis (strain CD36 / CBS 7987 / NCPF 3949 / NRRLY-17841) (Yeast), UniProt B9W6M3); experiment: calcineurin pathway inhibitors in yeast reporter, dose response, S. cerevisiae, CDRE-lacZ, luminescence, secondary (AID 2388); format: functional, cell-based;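 further: yeast reporter cells carrying a calcineurin-responsive lacZ construct stimulated with calcium chloride; luminescent beta-galactosidase reporter signal in whole cells rather than isolated phosphatase activity; potency for inhibition where a drop in reporter signal means calcineurin blockade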
# Sequence of Serine/threonine-protein phosphatase (B9W6M3 whole entry): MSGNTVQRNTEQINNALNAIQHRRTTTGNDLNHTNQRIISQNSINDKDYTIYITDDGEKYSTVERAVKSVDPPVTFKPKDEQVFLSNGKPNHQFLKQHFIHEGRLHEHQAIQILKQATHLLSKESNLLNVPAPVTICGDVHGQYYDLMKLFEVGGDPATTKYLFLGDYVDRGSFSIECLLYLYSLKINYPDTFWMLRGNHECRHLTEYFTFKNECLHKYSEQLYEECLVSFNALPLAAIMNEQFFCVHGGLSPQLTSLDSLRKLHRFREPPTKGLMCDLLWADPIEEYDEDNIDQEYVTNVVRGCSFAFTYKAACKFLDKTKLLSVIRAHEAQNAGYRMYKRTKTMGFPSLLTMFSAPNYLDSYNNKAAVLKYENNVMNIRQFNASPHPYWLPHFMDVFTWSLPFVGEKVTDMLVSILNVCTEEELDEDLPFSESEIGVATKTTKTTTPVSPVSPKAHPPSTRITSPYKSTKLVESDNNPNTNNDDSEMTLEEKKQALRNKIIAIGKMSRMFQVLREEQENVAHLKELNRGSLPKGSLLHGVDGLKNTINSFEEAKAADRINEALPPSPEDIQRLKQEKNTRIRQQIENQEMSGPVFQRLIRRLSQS
# [16] = HEp-2 cell cytotoxicity, dose response, cytotoxicity control for RSV inhibitor project, HTS (AID 2410); format: functional; details: human respiratory syncytial virus
# [17] = target: T4, Corticotropin-releasing factor receptor 2/Corticotropin-releasing factor-binding protein (Homo sapiens, UniProt P24387+Q13324); experiment: activators of CRF receptor 2 with binding protein – uHTS hits, confirmation (AID 602473); format: functional; details: read-out: EC50_Mean
# T4 sequence (Q13324 whole entry): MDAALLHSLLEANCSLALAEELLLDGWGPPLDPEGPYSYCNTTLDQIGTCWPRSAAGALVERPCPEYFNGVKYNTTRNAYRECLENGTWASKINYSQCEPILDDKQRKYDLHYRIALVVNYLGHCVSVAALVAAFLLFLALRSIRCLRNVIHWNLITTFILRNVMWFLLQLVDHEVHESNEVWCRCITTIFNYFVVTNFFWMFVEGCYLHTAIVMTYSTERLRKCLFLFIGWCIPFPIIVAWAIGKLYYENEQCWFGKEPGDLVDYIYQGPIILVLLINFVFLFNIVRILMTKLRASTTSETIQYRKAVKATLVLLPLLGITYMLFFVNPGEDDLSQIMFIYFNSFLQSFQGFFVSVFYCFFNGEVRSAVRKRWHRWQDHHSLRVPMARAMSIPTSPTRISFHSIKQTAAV
# T4 sequence (P24387 whole entry): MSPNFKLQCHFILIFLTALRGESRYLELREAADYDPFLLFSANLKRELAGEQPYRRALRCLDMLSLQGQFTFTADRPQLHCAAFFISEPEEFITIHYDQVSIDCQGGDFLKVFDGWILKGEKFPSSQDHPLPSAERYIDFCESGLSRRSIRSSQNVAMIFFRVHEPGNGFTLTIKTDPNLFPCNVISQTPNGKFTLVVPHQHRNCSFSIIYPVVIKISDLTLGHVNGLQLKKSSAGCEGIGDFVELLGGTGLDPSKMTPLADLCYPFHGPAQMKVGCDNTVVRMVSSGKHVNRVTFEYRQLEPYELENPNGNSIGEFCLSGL
# HEK293 [18] = experiment: cells; details: Homo sapiens
# HEK293 [19] = experiment: cells; details: Homo sapiens; remark: listed apart in the source
# [20] = cytotoxicity toward DRD oncogenic fibroblasts, dose response, cell-based, non-viral oncogenic, luminescence (AID 1934); format: functional; details: Homo sapiens
# BJ [21] = experiment: cytotoxicity toward BJ-TERT fibroblasts, dose response, cell-based, RAS-independent, luminescence (AID 1933); format: functional; details: Homo sapiens
# BJ [22] = experiment: cells; format: functional, cell-based; details: Homo sapiens
# BJ [23] = experiment: cytotoxicity toward BJ-TERT-LT-ST fibroblasts, dose response, cell-based, RAS-independent, luminescence (AID 1935); format: functional; details: Homo sapiens;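 further: BJ fibroblasts immortalized with TERT plus LT and ST oncogenes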
# INS1 = experiment: beta cell apoptosis inhibitors, cytokine rescue, dose response, luminescence, retest (AID 449756); format: functional, cell-based; details: Rattus norvegicus;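 further: cell death triggered by IL-1 beta plus TNF-alpha plus IFN-gamma mixture; protective hits raise ATP signal compared with cytokine alone wells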
# [24] = target: NACHT, LRR and PYD domains-containing protein 3 (Homo sapiens, UniProt Q96P20); experiment: NALP3 inhibitors in yeast, dose response, luminescent (AID 488799); format: functional
# Escherichia coli = experiment: microbe, parasite or virus in culture
# H4 = experiment: Luminescence Cell-Based Dose Response HTS to Identify Activators of 5'UTR Stem-Loop Driven Prion Protein mRNA Translation in H4 Neuroglioblastoma Cells. [Related pubchem assays: 1829 (Project Summary), 1814 (Primary HTS)]; format: functional; details: Homo sapiens
# [25] = Luminescence Cell-Based Dose Response HTS to Identify Activators of Luciferase Translation or Activity in H4 […] Cells. [Related pubchem assays: 1829 (Project Summary), 1814 (Primary HTS)]; format: functional
structure (smiles),measurement,setting,value
C/C(=N\NC(=O)c1cc(-c2cccc([N+](=O)[O-])c2)[nH]n1)c1ccccc1O,AC50,[1],2.35 µM (active)
same,IC50,[2],1.7 µM (active)
same,AC50,[3],50.7 µM (active)
same,EC50,[4],6.64 µM (active)
same,EC50,[5],2.18 µM (active)
Clc1ccc(CSc2nnc(-c3cccnc3)n2Cc2ccco2)c(Cl)c1,AC50,[1],28 µM (active)
same,AC50,[3],31.4 µM (active)
O=C(/C=C(O)/C=C/c1ccc(O)cc1)/C=C/c1ccc(O)cc1,IC50,Beta Lactamase,5.13 µM (active)
same,IC50,CHO,40 µM (inactive)
Cc1ccc(N2C(=O)CC(N3CCSCC3)C2=O)c(C)c1 (centres undefined),EC50,Ion channel NompC,> 29.9 µM (inactive)
same,EC50,Mucolipin-3,> 29.9 µM (not active)
CCOC(=O)N1CCC(NC(=O)C(NC(=O)C2CCC(C)CC2)C(C)CC)CC1 (centres undefined),IC50,[6],> 100 µM (inactive)
same,IC50,[7],> 100 µM (not active)
Oc1ccc(Oc2ccc3c(C(F)(F)F)cc(C(F)(F)F)nc3n2)cc1,EC50,[8],3.15 µM (active)
same,EC50,Mu-type opioid receptor,> 92.5 µM (inactive)
same,EC50,[9],> 92.5 µM (inactive)
same,IC50,[10],28.2 µM (inactive)
same,EC50,[11],> 92.5 µM (inactive)
O=[N+]([O-])c1c(C(Cl)Cl)nn(-c2ccc(Cl)cc2)c1N1CCCCC1,EC50,[12],18.7 µM (active)
same,EC50,[13],> 150 µM (inactive)
same,EC50,[14],0.436 µM (active)
same,EC50,[15],> 180 µM (inactive)
CC(C)c1nc2c(c(=O)c3ccccc3n2C)c(=O)n1CCc1ccccc1,CC50,[16],36 µM (active)
same,EC50,Ion channel NompC,3.97 µM (active)
same,EC50,[17],9.93 µM (active)
same,EC50,Mucolipin-3,3.96 µM (active)
same,IC50,cells,13.2 µM (active)
COC(=O)c1c(NC(=O)Cc2cccs2)sc(C(=O)N2CCCCC2)c1C,EC50,HEK293 [18],> 59.7 µM (inactive)
same,EC50,HEK293 [19],> 59.7 µM (inactive)
C=CCOc1ccc2[nH]c(NC(=O)OC)nc2c1,EC50,[20],1.01 µM (active)
same,EC50,BJ [21],1.69 µM (active)
same,EC50,HEK293 [18],> 59.6 µM (inactive)
same,EC50,BJ [22],18.4 µM (inconclusive)
same,EC50,HEK293 [19],> 59.6 µM (inactive)
same,EC50,BJ [23],1.46 µM (inconclusive)
Cc1nn(S(=O)(=O)c2ccc(Cl)cc2)c(C)c1Sc1ccc([N+](=O)[O-])cc1,IC50,[6],> 100 µM (inactive)
same,AC50,INS1,6.21 µM (active)
same,EC50,[4],> 60 µM (not active)
same,IC50,[7],> 100 µM (not active)
same,EC50,[5],1.73 µM (active)
CCOC(=O)N1C(=O)C2(CCCCC2)N(c2ccccc2Cl)C1=S,EC50,[12],23.1 µM (active)
same,IC50,[24],5.92 µM (active)
same,EC50,[13],39.7 µM (active)
same,EC50,[14],< 0.03 µM (active)
same,EC50,[15],> 180 µM (inactive)
O=c1oc(-c2ccccc2)nc2sc3c(c12)CCCC3,AC50,Escherichia coli,74.8 µM (active)
same,EC50,H4,34.1 µM (active)
same,EC50,[25],38.3 µM (active)
CCCCNC(=O)CCCn1c(=O)[nH]c2ccc(Br)cc2c1=O,AC50,Escherichia coli,53.7 µM (active)
